Test results from patent US20240327385A1, “SUBSTITUTED PIPERIDINE COMPOUNDS AS RENIN INHIBITORS” (priority 2023, published 2024).

Target: human recombinant renin (Homo sapiens (Human), UniProt P00797)
Test: human renin activity inhibition (SensoLyte 520 Renin Assay Kit Fluorimetric)
Assay type: biochemical
Settings: 30 min preincubation at 37° C., fluorescence at 530 nm after 15 min at 37° C., read-out: IC50 (nM), inhibitory effect on human renin activity
Description: The exemplary compounds of the disclosure were tested for their inhibitory effects on human renin activity, using a commercially available renin assay kit (SensoLyte® 520 Renin Assay Kit Fluorimetric), following the manufacture's manual.
Briefly, human recombinant renin (from the kit) was incubated with the compound of the disclosure or buffer for 30 min at 37° C. before substrate addition. Fluorescence intensity was measured at 530 nm after an incubation of 15 min at 37° C. Data was analyzed by Prism and fitted into a sigmodal curve for IC50 calculation.

human recombinant renin, sequence (P00797 67-406): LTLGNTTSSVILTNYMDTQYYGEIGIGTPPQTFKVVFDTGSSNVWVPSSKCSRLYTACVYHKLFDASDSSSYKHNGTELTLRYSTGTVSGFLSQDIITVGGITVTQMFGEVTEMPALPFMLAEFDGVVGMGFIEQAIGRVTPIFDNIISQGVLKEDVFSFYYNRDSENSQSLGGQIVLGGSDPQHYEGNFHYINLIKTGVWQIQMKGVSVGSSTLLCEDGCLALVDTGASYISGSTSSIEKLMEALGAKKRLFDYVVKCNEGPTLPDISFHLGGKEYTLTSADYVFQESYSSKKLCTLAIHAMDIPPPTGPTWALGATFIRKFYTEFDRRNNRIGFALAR

In the case of `CO[C@H]1C[C@H](Nc2cc(C3CC3)cnc2C(=O)N(CC(C)C)[C@@H]2CNC[C@H](c3ncon3)C2)C1` [Compound 39, (3S)—{N-(2-methylpropyl), N-{5-cyclopropyl-3-[3-(trans-methoxy)cyclobutyl]amino}pyridine-2-carbonyl}amino-(5R)-(1,2,4-oxadiazol-3-yl)-piperidine], the IC50 is reported as under 10 nM.

`CC(C)CN(C(=O)c1ncc(C2CC2)cc1NC1COC1)[C@H]1CCCNC1` [Compound 36, (3S)—{N-(2-methylpropyl), N-[5-cyclopropyl-3-(oxetan-3-yl)amino]pyridine-2-carbonyl}amino-piperidine] gave an IC50 of under 50 nM.

In the case of `CO[C@H]1C[C@H](Nc2cc(C3CC3)cnc2C(=O)N(CC(C)C)[C@H]2CCCNC2)C1` [Compound 26, (3S)—{N-(2-methylpropyl), N-{5-cyclopropyl-3-[3-(trans-methoxy)cyclobutyl]amino}pyridine-2-carbonyl}amino-piperidine], the IC50 is reported as under 20 nM.

Work on `CO[C@H]1C[C@H](Nc2cc(C3CC3)cnc2C(=O)N(CC(C)C)[C@@H]2CNC[C@H](c3nc(C)no3)C2)C1` [Compound 29, (3S)—{N-(2-methylpropyl), N-{5-cyclopropyl-3-[3-(trans-methoxy)cyclobutyl]amino}pyridine-2-carbonyl}amino-(5R)-(3-methyl-1,2,4-oxadiazol-5-yl)-piperidine] yielded an IC50 of under 10 nM.

For `CO[C@H]1C[C@H](Nc2cc(C3CC3)nnc2C(=O)N(CC(C)C)[C@@H]2CNC[C@H](C(=O)N3CCOC[C@@H]3C)C2)C1` [Compound 33, (3S)—{N-(2-methylpropyl), N-{6-cyclopropyl-4-[3-(trans-methoxy)cyclobutyl]amino}pyridazine-3-carbonyl}amino-(5R)-[(3S)-3-methylmorpholine-4-carbonyl]-piperidine], the IC50 was under 250 nM.

With `CO[C@H]1C[C@H](Nc2cc(C3CC3)cnc2C(=O)N(CC(C)C)C2CNC[C@H](c3nnc(C4CC(F)(F)C4)o3)C2)C1` (stereo partly drawn) [Compound 24, (3S)—{N-(2-methylpropyl), N-{5-cyclopropyl-3-[3-(trans-methoxy)cyclobutyl]amino}pyridine-2-carbonyl}amino-(5R)-(3,3-diflurorocyclobutyl-1,3,4-oxadiazol-2-yl)-piperidine] the IC50 was 1 nM.

`Cc1nnc(C2CNC[C@@H](N(CC(C)C)C(=O)c3ncc(C4CC4)cc3NC3COC3)C2)o1` (stereo in doubt) [Compound 37, (3S)—{N-(2-methylpropyl), N-[5-cyclopropyl-3-(oxetan-3-yl)amino]pyridine-2-carbonyl}amino-(5R)-(5-methyl-1,3,4-oxadiazol-2-yl)-piperidine] gave an IC50 of under 20 nM.

`CC(C)CN(C(=O)c1ncc(C(F)(F)F)cc1NC1COC1)[C@@H]1CNC[C@H](C(=O)N2CCOCC2)C1` [Compound 43, (3S)—{N-(2-methylpropyl), N-[5-trifluoromethyl-3-(oxetan-3-yl)amino]pyridine-2-carbonyl}amino-(5R)-(morpholine-N-carbonyl)-piperidine] gave an IC50 of under 10 nM.

`CO[C@H]1C[C@H](Nc2cc(C3CC3)cnc2C(=O)N(CC(C)C)[C@@H]2CNCC(c3nnc(C4COC4)o3)C2)C1` (stereo in doubt) [Compound 34, (3S)—{N-(2-methylpropyl), N-{5-cyclopropyl-3-[3-(trans-methoxy)cyclobutyl]amino}pyridine-2-carbonyl}amino-(5R)-[5-(oxetan-3-yl)-1,3,4-oxadiazol-2-yl]-piperidine] gave an IC50 of under 10 nM.

With `CC(C)CN(C(=O)c1ncc(C2CC2)cc1NC1CC1)C1CNCC(C(=O)N2CCOC[C@@H]2C)C1` (stereo partly drawn) [Compound 21, (3S)—[N-(2-methylpropyl), N-(5-cyclopropyl-3-cyclopropylamino)pyridine-2-carbonyl]amino-(5R)-[(3S)-methylmorpholine-N-carbonyl]-piperidine] the IC50 was 1.4 nM.

In the case of `CO[C@H]1C[C@H](Nc2cc(C3CC3)cnc2C(=O)N(CC(C)C)C2CNCC(C(=O)N3CCC(F)(F)C3)C2)C1` (stereo partly drawn) [Compound 11, (3S)—{N-(2-methylpropyl), N-{5-cyclopropyl-3-[3-(trans-methoxy)cyclobutyl]amino}pyridine-2-carbonyl}amino-(5R)-(3,3-difluoropyrrolidine-N-carbonyl)-piperidine], the IC50 is reported as 1.2 nM.
